What was measured:
DAT = DAT (Homo sapiens (Human), UniProt Q01959); settings: read-out: IC50 inhibiting reuptake at DAT; cited from earlier work
SERT = SERT (Homo sapiens (Human), UniProt P31645); settings: read-out: IC50 inhibiting reuptake at SERT; cited from earlier work
[1] = target: T1, serotonin (5-HT) transporter (SERT) (Rattus norvegicus (Rat), UniProt P31652); assay: Rat synaptosome SERT [3H]5-HT release assay; settings: [3H]5-HT release via SERT EC50 (nM), 5 nM [3H]5-HT
5-HT1B = 5-HT1B (Homo sapiens (Human), UniProt P28222); settings: cited from earlier work
5-HT1B, sequence (P28222 whole entry, looked up, species assumed): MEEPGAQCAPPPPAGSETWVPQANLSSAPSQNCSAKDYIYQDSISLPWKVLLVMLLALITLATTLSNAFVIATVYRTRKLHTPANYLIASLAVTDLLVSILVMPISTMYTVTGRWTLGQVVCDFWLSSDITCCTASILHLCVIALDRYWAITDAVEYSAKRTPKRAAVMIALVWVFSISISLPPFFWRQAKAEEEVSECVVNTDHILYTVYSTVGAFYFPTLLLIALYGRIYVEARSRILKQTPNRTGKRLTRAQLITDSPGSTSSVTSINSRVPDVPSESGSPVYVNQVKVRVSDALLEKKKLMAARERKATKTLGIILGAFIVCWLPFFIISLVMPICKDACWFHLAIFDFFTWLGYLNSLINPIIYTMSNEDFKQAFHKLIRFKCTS

[2] = target: T1, serotonin (5-HT) transporter (SERT); assay: Rat synaptosome SERT [3H]5-HT uptake inhibition assay; settings: Inhibition of [3H]5-HT Uptake at SERT IC50 (nM), 5 nM [3H]5-HT
neuritogenesis = settings: cited from earlier work

SMILES	IC50 (DAT)	IC50 (SERT)	EC50 [1]	binding to 5-HT1B (5-HT1B)	IC50 [2]	EC50 (neuritogenesis; read-out: EC50 for promoting neuritogenesis)	Emax for promoting neuritogenesis (neuritogenesis; relative to ketamine)
CNC(C)Cc1ccc2occc2c1 (racemic) [racemic 5-MAPB, 1-(benzofuran-5-yl)-N-methylpropan-2-amine]	3100 nM	8500 nM					
CNC(C)Cc1ccc2c(c1)OCO2 (stereo not shown) [MDMA]			94.3 ± 13.6 nM	does not bind directly	384 ± 32.8 nM	7.41 nM	approximately twice that of ketamine
